Measured values published in ChEMBL document CHEMBL3352351 (Bioorg Med Chem, 2014).

Key:
HT-29 = experiment: Cytotoxicity against human HT-29 cells after 72 hrs by MTT assay; conditions: HT-29, 72 h
[1] = Cytotoxicity against human MKN45 cells after 72 hrs by MTT assay; conditions: MKN-45, 72 h
A549 = experiment: Cytotoxicity against human A549 cells after 72 hrs by MTT assay; conditions: A549, 72 h
[2] = Cytotoxicity against human U87MG cells after 72 hrs by MTT assay; format: functional, cell-based, U-87MG ATCC; conditions: U-87 MG
[3] = Cytotoxicity against human H460 cells after 72 hrs by MTT assay; conditions: NCI-H460, 72 h
[4] = target: Hepatocyte growth factor receptor (Homo sapiens, UniProt P08581); experiment: Inhibition of c-Met (unknown origin) using poly (Glu, Tyr) 4:1 substrate incubated for 30 mins by HTRF assay
Hepatocyte growth factor receptor, sequence (P08581 whole entry): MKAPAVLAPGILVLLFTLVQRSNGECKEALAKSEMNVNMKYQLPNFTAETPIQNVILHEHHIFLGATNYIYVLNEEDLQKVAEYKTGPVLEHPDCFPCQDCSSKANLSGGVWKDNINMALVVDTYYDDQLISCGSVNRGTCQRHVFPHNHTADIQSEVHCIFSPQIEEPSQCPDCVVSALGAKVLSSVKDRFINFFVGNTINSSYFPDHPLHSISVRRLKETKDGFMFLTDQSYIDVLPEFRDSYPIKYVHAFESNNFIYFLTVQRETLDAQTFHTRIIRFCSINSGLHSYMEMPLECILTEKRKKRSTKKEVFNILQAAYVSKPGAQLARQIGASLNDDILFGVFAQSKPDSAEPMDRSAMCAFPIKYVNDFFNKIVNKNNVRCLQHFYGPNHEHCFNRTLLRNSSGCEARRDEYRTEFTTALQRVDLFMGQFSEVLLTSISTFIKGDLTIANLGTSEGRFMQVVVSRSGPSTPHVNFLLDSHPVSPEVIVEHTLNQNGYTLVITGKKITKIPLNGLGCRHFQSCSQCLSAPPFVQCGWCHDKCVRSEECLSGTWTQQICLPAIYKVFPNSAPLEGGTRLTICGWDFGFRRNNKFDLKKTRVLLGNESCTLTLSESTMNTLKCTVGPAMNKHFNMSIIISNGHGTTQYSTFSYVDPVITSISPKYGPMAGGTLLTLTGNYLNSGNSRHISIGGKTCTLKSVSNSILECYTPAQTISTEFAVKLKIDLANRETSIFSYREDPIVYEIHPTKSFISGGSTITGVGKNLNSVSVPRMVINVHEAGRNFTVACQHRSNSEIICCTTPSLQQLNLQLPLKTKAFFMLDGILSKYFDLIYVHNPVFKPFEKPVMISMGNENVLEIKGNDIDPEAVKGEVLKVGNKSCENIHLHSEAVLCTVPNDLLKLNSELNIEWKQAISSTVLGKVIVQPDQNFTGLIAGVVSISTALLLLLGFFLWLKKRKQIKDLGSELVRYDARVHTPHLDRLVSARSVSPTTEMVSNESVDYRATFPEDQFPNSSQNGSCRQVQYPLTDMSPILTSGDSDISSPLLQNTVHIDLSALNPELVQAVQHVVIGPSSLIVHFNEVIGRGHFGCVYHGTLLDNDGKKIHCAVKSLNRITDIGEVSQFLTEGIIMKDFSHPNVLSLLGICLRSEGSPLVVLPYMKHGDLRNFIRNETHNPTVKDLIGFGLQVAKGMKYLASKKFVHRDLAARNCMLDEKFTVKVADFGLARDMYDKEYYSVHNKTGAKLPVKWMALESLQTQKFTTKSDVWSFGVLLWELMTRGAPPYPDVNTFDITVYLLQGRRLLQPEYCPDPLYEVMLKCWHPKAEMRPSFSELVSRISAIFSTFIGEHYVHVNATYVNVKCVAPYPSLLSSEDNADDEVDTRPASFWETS

With `COc1cc2c(Oc3ccc(NC(=O)c4nnn(-c5ccccc5Cl)c4C(F)(F)F)cc3F)ccnc2cc1OCCCN1CCN(C)CC1` the IC50 (HT-29) was 270 nM, the IC50 [1] was 166 nM and the IC50 (A549) was 240 nM. For the same compound, the IC50 [2] was 1220 nM.

`COc1ccc(-n2nnc(C(=O)Nc3ccc(Oc4ccnc5cc(OCCCN6CCCC6)c(OC)cc45)c(F)c3)c2C(F)(F)F)cc1` showed an IC50 (HT-29) of 1020 nM, an IC50 [1] of 590 nM and an IC50 (A549) of 560 nM.

Work on `COc1cc2c(Oc3ccc(NC(=O)c4nnn(-c5ccccc5C(F)(F)F)c4C(F)(F)F)cc3F)ccnc2cc1OCCCN1CCN(C)CC1` yielded an IC50 (HT-29) of 230 nM, an IC50 [1] of 100 nM and an IC50 (A549) of 180 nM. For the same compound, the IC50 [2] was 1440 nM.

For `COc1cc2c(Oc3ccc(NC(=O)c4nnn(-c5ccc(F)c(F)c5)c4C(F)(F)F)cc3F)ccnc2cc1OCCCN1CCC(C)CC1`, the IC50 (HT-29) was 190 nM, the IC50 [1] was 50 nM and the IC50 (A549) was 140 nM. It also gave an IC50 [2] of 1150 nM.

`COc1cc2c(Oc3ccc(NC(=O)c4nnn(-c5ccc(F)c(F)c5)c4C(F)(F)F)cc3F)ccnc2cc1OCCCN1CCCC1` showed an IC50 (HT-29) of 180 nM, an IC50 [1] of 70 nM and an IC50 (A549) of 170 nM. It also gave an IC50 [2] of 1070 nM.

`COc1ccc(-n2nnc(C(=O)Nc3ccc(Oc4ccnc5cc(OCCCN6CCOCC6)c(OC)cc45)c(F)c3)c2C(F)(F)F)cc1` gave an IC50 (HT-29) of 1080 nM, an IC50 [1] of 680 nM and an IC50 (A549) of 640 nM. For the same compound, the IC50 [2] was 2400 nM.

For `COc1cc2c(Oc3ccc(NC(=O)c4nnn(-c5ccccc5)c4C)cc3F)ccnc2cc1OCCCN1CCCC1`, the IC50 (HT-29) was 130 nM, the IC50 [1] was 40 nM and the IC50 (A549) was 90 nM. For the same compound, the IC50 [2] was 1000 nM.

`COc1cc2c(Oc3ccc(NC(=O)c4nnn(-c5ccccc5C)c4C)cc3F)ccnc2cc1OCCCN1CCCCC1` showed an IC50 (HT-29) of 450 nM, an IC50 [1] of 160 nM and an IC50 (A549) of 330 nM. The IC50 [2] was 2370 nM.

`COc1cc2c(Oc3ccc(NC(=O)c4nnn(-c5ccc(F)c(F)c5)c4C(F)(F)F)cc3F)ccnc2cc1OCCCN1CCOCC1` gave an IC50 (HT-29) of 230 nM, an IC50 [1] of 50 nM and an IC50 (A549) of 150 nM. The IC50 [2] was 1130 nM.

In the case of `COc1cc2c(Oc3ccc(NC(=O)c4nnn(-c5ccccc5Cl)c4C(F)(F)F)cc3F)ccnc2cc1OCCCN1CCCCC1`, the IC50 (HT-29) is reported as 200 nM, the IC50 [1] is reported as 110 nM and the IC50 (A549) is reported as 190 nM. The IC50 [2] was 1200 nM.

With `COc1cc2c(Oc3ccc(NC(=O)c4nnn(-c5ccccc5)c4C)cc3F)ccnc2cc1OCCCN1CCC(C)CC1` the IC50 (HT-29) was 140 nM, the IC50 [1] was 90 nM and the IC50 (A549) was 110 nM. For the same compound, the IC50 [2] was 1240 nM.

`COc1cc2c(Oc3ccc(NC(=O)c4nnn(-c5ccccc5)c4C)cc3F)ccnc2cc1OCCCN1CCCCC1` showed an IC50 (HT-29) of 120 nM, an IC50 [1] of 80 nM and an IC50 (A549) of 100 nM. It also gave an IC50 [2] of 1130 nM.

With `COc1cc2c(Oc3ccc(NC(=O)c4nnn(-c5ccccc5C)c4C)cc3F)ccnc2cc1OCCCN1CCCC1` the IC50 (HT-29) was 450 nM, the IC50 [1] was 270 nM and the IC50 (A549) was 380 nM. The IC50 [2] was 1600 nM.

For `COc1cc2c(Oc3ccc(NC(=O)c4nnn(-c5ccc(C)cc5)c4C(F)(F)F)cc3F)ccnc2cc1OCCCN1CCCC1`, the IC50 (HT-29) was 550 nM, the IC50 [1] was 210 nM and the IC50 (A549) was 370 nM.

In the case of `COc1cc2c(Oc3ccc(NC(=O)c4nnn(-c5ccc(C)cc5)c4C(F)(F)F)cc3F)ccnc2cc1OCCCN1CCOCC1`, the IC50 (HT-29) is reported as 570 nM, the IC50 [1] is reported as 620 nM and the IC50 (A549) is reported as 350 nM. The IC50 [2] was 2700 nM.

With `COc1cc2c(Oc3ccc(NC(=O)c4nnn(-c5cccc(Br)c5)c4C(F)(F)F)cc3F)ccnc2cc1OCCCN1CCC(C)CC1` the IC50 (HT-29) was 380 nM, the IC50 [1] was 120 nM and the IC50 (A549) was 350 nM.

In the case of `COc1cc2c(Oc3ccc(NC(=O)c4nnn(-c5ccccc5C)c4C)cc3F)ccnc2cc1OCCCN1CCC(C)CC1`, the IC50 (HT-29) is reported as 520 nM, the IC50 [1] is reported as 120 nM and the IC50 (A549) is reported as 360 nM. For the same compound, the IC50 [2] was 2160 nM.

Compound `COc1ccc(-n2nnc(C(=O)Nc3ccc(Oc4ccnc5cc(OCCCN6CCN(C)CC6)c(OC)cc45)c(F)c3)c2C(F)(F)F)cc1` has an IC50 (HT-29) of 2200 nM, an IC50 [1] of 330 nM and an IC50 (A549) of 1220 nM.

For `COc1cc2c(Oc3ccc(NC(=O)c4nnn(-c5ccc(F)cc5)c4C(F)(F)F)cc3F)ccnc2cc1OCCCN1CCCCC1`, the IC50 (HT-29) was 150 nM, the IC50 [1] was 40 nM and the IC50 (A549) was 110 nM. For the same compound, the IC50 [2] was 1100 nM.

`COc1cc2c(Oc3ccc(NC(=O)c4nnn(-c5ccccc5C(F)(F)F)c4C)cc3F)ccnc2cc1OCCCN1CCOCC1` gave an IC50 (HT-29) of 200 nM, an IC50 [1] of 100 nM and an IC50 (A549) of 180 nM. The IC50 [2] was 1010 nM.

In the case of `COc1cc2c(Oc3ccc(NC(=O)c4nnn(-c5ccccc5C(F)(F)F)c4C)cc3F)ccnc2cc1OCCCN1CCC(C)CC1`, the IC50 (HT-29) is reported as 260 nM, the IC50 [1] is reported as 60 nM and the IC50 (A549) is reported as 180 nM. It also gave an IC50 [2] of 1120 nM.

In the case of `COc1cc2c(Oc3ccc(NC(=O)c4nnn(-c5ccccc5C(F)(F)F)c4C)cc3F)ccnc2cc1OCCCN1CCCC1`, the IC50 (HT-29) is reported as 200 nM, the IC50 [1] is reported as 70 nM and the IC50 (A549) is reported as 160 nM. It also gave an IC50 [2] of 1060 nM.

In the case of `COc1cc2c(Oc3ccc(NC(=O)c4nnn(-c5ccc(F)cc5)c4C(F)(F)F)cc3F)ccnc2cc1OCCCN1CCOCC1`, the IC50 (HT-29) is reported as 140 nM, the IC50 [1] is reported as 60 nM and the IC50 (A549) is reported as 130 nM. It also gave an IC50 [2] of 1080 nM.

In the case of `COc1cc2c(Oc3ccc(NC(=O)c4nnn(-c5ccc(F)cc5)c4C(F)(F)F)cc3F)ccnc2cc1OCCCN1CCC(C)CC1`, the IC50 (HT-29) is reported as 160 nM, the IC50 [1] is reported as 70 nM and the IC50 (A549) is reported as 120 nM. For the same compound, the IC50 [2] was 800 nM.

Compound `COc1cc2c(Oc3ccc(NC(=O)c4nnn(-c5ccccc5)c4C)cc3F)ccnc2cc1OCCCN1CCOCC1` has an IC50 (HT-29) of 180 nM, an IC50 [1] of 60 nM and an IC50 (A549) of 140 nM. The IC50 [2] was 1060 nM.

For `COc1cc2c(Oc3ccc(NC(=O)c4nnn(-c5ccccc5C(F)(F)F)c4C(F)(F)F)cc3F)ccnc2cc1OCCCN1CCC(C)CC1`, the IC50 (HT-29) was 200 nM, the IC50 [1] was 100 nM and the IC50 (A549) was 220 nM. The IC50 [2] was 1240 nM.

Compound `COc1cc2c(Oc3ccc(NC(=O)c4nnn(-c5ccccc5C)c4C)cc3F)ccnc2cc1OCCCN1CCOCC1` has an IC50 (HT-29) of 470 nM, an IC50 [1] of 220 nM and an IC50 (A549) of 320 nM. For the same compound, the IC50 [2] was 1500 nM.

Work on `COc1cc2c(Oc3ccc(NC(=O)c4nnn(-c5ccc(F)c(F)c5)c4C(F)(F)F)cc3F)ccnc2cc1OCCCN1CCN(C)CC1` yielded an IC50 (HT-29) of 150 nM, an IC50 [1] of 90 nM and an IC50 (A549) of 130 nM. For the same compound, the IC50 [2] was 1390 nM.

`COc1cc2c(Oc3ccc(NC(=O)c4nnn(-c5ccc(C)cc5)c4C(F)(F)F)cc3F)ccnc2cc1OCCCN1CCC(C)CC1` gave an IC50 (HT-29) of 1200 nM, an IC50 [1] of 140 nM and an IC50 (A549) of 400 nM. For the same compound, the IC50 [2] was 2800 nM.

Work on `COc1ccc(-n2nnc(C(=O)Nc3ccc(Oc4ccnc5cc(OCCCN6CCCCC6)c(OC)cc45)c(F)c3)c2C(F)(F)F)cc1` yielded an IC50 (HT-29) of 1220 nM, an IC50 [1] of 280 nM and an IC50 (A549) of 890 nM. The IC50 [2] was 2800 nM.

Compound `COc1cc2c(Oc3ccc(NC(=O)c4nnn(-c5ccccc5C(F)(F)F)c4C(F)(F)F)cc3F)ccnc2cc1OCCCN1CCOCC1` has an IC50 (HT-29) of 230 nM, an IC50 [1] of 90 nM and an IC50 (A549) of 210 nM. The IC50 [2] was 1160 nM.

`COc1cc2c(Oc3ccc(NC(=O)c4nnn(-c5ccccc5C(F)(F)F)c4C)cc3F)ccnc2cc1OCCCN1CCN(C)CC1` gave an IC50 (HT-29) of 230 nM, an IC50 [1] of 100 nM and an IC50 (A549) of 200 nM. The IC50 [2] was 1420 nM.

For `COc1cc2c(Oc3ccc(NC(=O)c4nnn(-c5ccc(F)c(F)c5)c4C(F)(F)F)cc3F)ccnc2cc1OCCCN1CCCCC1`, the IC50 (HT-29) was 180 nM, the IC50 [1] was 90 nM and the IC50 (A549) was 160 nM. It also gave an IC50 [2] of 1210 nM.

`COc1cc2c(Oc3ccc(NC(=O)c4nnn(-c5ccc(C)cc5)c4C(F)(F)F)cc3F)ccnc2cc1OCCCN1CCN(C)CC1` showed an IC50 (HT-29) of 1170 nM, an IC50 [1] of 140 nM and an IC50 (A549) of 370 nM. For the same compound, the IC50 [2] was 2170 nM.

`COc1cc2c(Oc3ccc(NC(=O)c4nnn(-c5ccccc5C(F)(F)F)c4C(F)(F)F)cc3F)ccnc2cc1OCCCN1CCCC1` gave an IC50 (HT-29) of 210 nM, an IC50 [1] of 60 nM and an IC50 [3] of 270 nM. It also gave an IC50 (A549) of 200 nM, an IC50 [2] of 1180 nM and an IC50 [4] of 3.68 nM.

With `COc1cc2c(Oc3ccc(NC(=O)c4nnn(-c5ccccc5C(F)(F)F)c4C)cc3F)ccnc2cc1OCCCN1CCCCC1` the IC50 (HT-29) was 200 nM, the IC50 [1] was 90 nM and the IC50 (A549) was 170 nM. It also gave an IC50 [2] of 1150 nM.

Compound `COc1cc2c(Oc3ccc(NC(=O)c4nnn(-c5ccc(C)cc5)c4C(F)(F)F)cc3F)ccnc2cc1OCCCN1CCCCC1` has an IC50 (HT-29) of 1250 nM, an IC50 [1] of 230 nM and an IC50 (A549) of 490 nM. The IC50 [2] was 2500 nM.
